By melting point is commonly meant the temperature of the solid-liquid transition.

Bounds are passed on as bounds.

This is an account of results in a melting point compilation (Tetko et al.; mined from patent text by program, amines drawn as free bases though some values may be those of a salt).

In turn, `O=c1[nH]c2ccc(S(=O)CCCl)cc2o1` (configuration not stated) returned a melting point of 150 to 155 °C.
As to `CS(=O)(=O)c1ccc(C(=O)c2cc(-c3ccncc3)c(N3CCOCC3)s2)cc1`, the melting point worked out at 128 °C.
Molecule `COc1cc(OCc2ccccc2)ccc1C(=O)c1cc(Cl)ccc1N` displayed a melting point of 97 to 98 °C.
For the molecule `CCCN(Cc1ccccc1)c1cccc(-c2nc(NC)nc3cc(OC)c(OC)cc23)c1`, the melting point is 75 to 77 °C.
As for `C=CCOC(=O)C(C)N(C(=O)CCl)c1c(C)cccc1C` (configuration not stated), the melting point lay in the range of 55 to 56 °C.
On to `CC(=O)c1c(C)nc(C)n1-c1cc(C)c2[nH]c(=O)ccc2c1`, for which the melting point lay in the range of 240 to 242 °C.
For the molecule `CCOC(=O)Nc1ccc2oc(CCC(F)(F)F)cc2c1`, the melting point came out at 108 °C.
`COc1cc(COc2nn(-c3ccccc3)cc2CCc2cscn2)ccc1OCc1nc(-c2ccco2)oc1C`: the melting point was in the range of 127 to 128 °C.
Molecule `CC(C)(C)c1cc([PH](=O)c2cc(C(C)(C)C)cc(C(C)(C)C)c2)cc(C(C)(C)C)c1` gave a melting point of 185 °C.
`CCN(C)C(=O)C(Cc1ccc(C#N)cc1)NC(=O)C(Cc1ccc(OC)cc1)S(=O)(=O)Nc1ccc(Cl)c(Cl)c1` (configuration not stated): the melting point was determined as 192 °C.
Regarding `COc1ccc(Cn2nc(C3CCN(CCc4c(C)nc5n(c4=O)CCS5)CC3)c3ccc(F)cc32)cc1`, the melting point was found to be 146 °C.
Molecule `COc1cc(-c2nc3ccc(OCCN(C)C)cc3n2Cc2ccccc2)cc(OC)c1OC` showed a melting point of 108 °C.
As for `CCCc1nc2c(N)nc3ccccc3c2n1CCCC(C)N(OC)C(=O)Nc1ccccc1` (configuration not stated), the figure is 140 to 142 °C.
Regarding `COc1ccc(-c2nc3ccc(-n4cncn4)cc3[nH]2)cc1OC(C)C`, the melting point was in the range of 118 to 126 °C.
In the case of `CC(=O)OC(=Cc1ccccc1)c1ccc(OC(C)=O)c(OC(C)=O)c1[N+](=O)[O-]`, the melting point was in the range of 119 to 121 °C.
The molecule `CCS(=O)(=O)CCc1ccc2[nH]cc(CC3CCCN3C)c2c1` (configuration not stated) registered a melting point of 59 to 62 °C.
With `CCCC1(C(=O)NCCCCCO)c2ccccc2-c2ccccc21`, the melting point fell in the range of 48 to 51 °C.
`CCOC(=O)C1=C(C(F)(F)F)Nc2n[nH]cc2C1c1ccccc1` (configuration not stated) displayed a melting point of 110 to 115 °C.
For `Cc1oc(-c2ccc(C(F)(F)F)cc2)nc1-c1cccc(-c2ccc(OC(Cc3ccccc3)C(=O)O)cc2)c1` (configuration not stated), the melting point was 148 to 149 °C.
For `CC(C)NC(=O)CC(O)(Cn1cncn1)c1ccc(Cl)cc1Cl` (configuration not stated), the melting point lay in the range of 105 to 107 °C.
For `CCN(C(=O)NC)c1ccc(Cl)nc1`, the melting point is 135 to 136 °C.
As for `CC(=O)[NH+]([O-])C[C@@H]1CN(c2ccc(N3CCN(S(=O)(=O)CC#N)CC3)c(F)c2)C(=O)O1` (some centres not stated), the figure is 153 to 156 °C.
For the molecule `Cc1cc(F)ccc1-c1ccc(S(=O)(=O)N2c3ccccc3CC2C(=O)NCCOc2ccc(C(=O)OC(C)(C)C)cc2)cc1` (configuration not stated), the melting point worked out at 84 °C.
Regarding `C[C@@]1(CN2CCN(C(=O)OCc3ccc(F)cc3)CC2)Cn2cc([N+](=O)[O-])nc2O1`, the melting point lay in the range of 167 to 169 °C.
`CCC(Oc1ccc(Cl)c(C)c1)C(=O)NCc1ccco1` (configuration not stated) showed a melting point of 100 to 102 °C.
On to `CC12CCC3C(CC=C4CC(O[Si](C)(C)C)CCC43C)C1CCC2=O` (configuration not stated), for which the melting point lay in the range of 173 to 174 °C.
Regarding `C1=Nc2ccccc2N2CCCc3cccc1c32`, the melting point fell in the range of 118 to 120 °C.
Molecule `CN1CCN(c2cc3ncc(C#N)c(Nc4ccc(F)c(Cl)c4)c3cc2[N+](=O)[O-])CC1` had a melting point of 240 to 246 °C.
In turn, `CC(CO)C1CCC2=C3C=CC4C(C)(C)C(OC(=O)c5ccccc5)CCC4(C)C3CCC21C` (configuration not stated) returned a melting point of 218 to 220 °C.
In the case of `Cc1noc(C)c1Cn1cc(N2C(=O)CN(CCc3cccc(F)c3)C2=O)cn1`, the melting point lay in the range of 110 to 111 °C.
For `O=C(NC(CCc1ccccc1)c1nnc(NS(=O)(=O)c2ccccc2)o1)c1cccc2[nH]c(-c3ccncc3)nc12` (configuration not stated), the melting point came out at 220 °C.
In turn, `CNC(=O)[C@@H]1C[C@H](OC)CN1S(=O)(=O)c1ccc(Cl)c(COc2cccc3c(-n4ccnc4)cc(C)nc23)c1Cl` registered a melting point of 64 °C.
The figure for `CS(=O)(=O)c1ncc2c(n1)N(c1ccccc1)C(=O)N(c1ccccc1Cl)C2` is 186 °C; for `Cc1c(SCCN2CCc3ccccc3C2)ccnc1CSc1nc2ccccc2[nH]1` it is 90 to 94 °C; for `N#Cc1ccccc1NC1CCN(Cc2ccccc2)CC1` it is 104 to 105 °C.
The molecule `COc1cc(-c2nc3ccc(OCCN(C)C)cc3n2Cc2ccccc2Br)cc(OC)c1OC` registered a melting point of 152 °C.
On to `Cc1cc(C(C)(CC(=O)O)c2ccc(O)c(C)c2)ccc1O`, for which the melting point was determined as 130 °C.
Molecule `CC(C)=CCCC(C)=CCCC(C)=CC=CC(C)=CC(N)=O` gave a melting point of 63 to 65 °C.
Take `O=Cc1cn(Cc2ccc(Cl)cc2)c2ccccc12`: the melting point came out at 122 °C.
The figure for `CCCn1c(=O)nc(SC)c2c1ncn2COCc1ccccc1` is 167 to 168 °C; for `COCCCNCCCc1ccc(-c2cnc(N)c(C(=O)Nc3cccnc3)n2)cc1` it is 113 °C; for `CN1C[C@@H]2C[C@@]1(C(=O)c1ccc(-c3[nH]nc4c3C(=O)c3c(NC(=O)NN5CCOCC5)cccc3-4)s1)CN2` it is 224 to 225 °C.
The molecule `CCOc1ccc2c(c1)n(C1CCCC1)c(=O)n2Cc1ccc(NC(=O)N(CC)CC)cc1OC` showed a melting point of 140 °C.
On to `O=C1c2cccc3cccc(c23)C(=O)N1CCI`, for which the melting point was in the range of 222 to 224 °C.
`COc1ccc(S(=O)(=O)Nc2ccccc2Nc2ccccc2)cc1` had a melting point of 140 to 142 °C.
Molecule `CCCC(C)(Oc1ccccc1C)C(=O)OC1CC(O)C=C2C=CC(C)C(CCC3CC(O)CC(=O)O3)C21` (mixture of isomers) returned a melting point of 161 to 163 °C.
On to `CCCCCCCNC(=O)Nc1ccccc1C(=O)N1CCCN(C(c2ccccc2)c2ccccc2)CC1`, for which the melting point turned out to be 125 °C.
Take `c1ccc(N(c2ccccc2)c2ccc(N(c3ccccc3)c3ccccc3)cc2)cc1`: the melting point was in the range of 200 to 202 °C.
For `CCCc1nc2c(N)nc3ccccc3c2n1CCCON=C(C)C`, the melting point fell in the range of 147 to 150 °C.
`O=C1Nc2ccc(-c3cccc(Cl)c3)cc2C(c2ccccc2)O1` (configuration not stated) had a melting point of 177 to 178 °C.
The figure for `OCc1cn(-c2ccccc2)nc1-c1ccc(Cl)cc1` is 141 to 142 °C; for `CCOCC(=O)c1cc(C(C)(C)C)c(O)c(C(C)(C)C)c1` it is 73 to 75 °C; for `Cc1nc2c3c(ccn2c1C)C(=O)CC(c1ccccc1)N3` (configuration not stated) it is 138 to 140 °C.
`CSc1ccc2ncn(CCN3CCC(Nc4nc5ccccc5n4Cc4ccc(F)cc4)CC3)c(=O)c2c1` returned a melting point of 101 °C.
The figure for `CC12CCC3c4cc(C=O)c(OCc5ccccc5)cc4CCC3C1CCC2OCc1ccccc1` (configuration not stated) is 145 to 147 °C.
In turn, `CC(C)(C)c1ccc(S(=O)(=O)N2c3ccccc3C[C@H]2C(=O)NCc2cccc(O)c2)cc1` returned a melting point of 94 °C.
Take `CC(C)Oc1cccc(-n2c(=S)[nH]c3ccccc3c2=O)c1`: the melting point lay within 288 to 290 °C.
Molecule `CC(=O)Nc1nc(CCc2ccc(NC(N)=S)cc2)c(Cc2ccc(S(C)(=O)=O)cc2)s1` showed a melting point of 102 to 103 °C.
In the case of `COc1cc2c(cc1OC)CN(CCc1ccc(NC(=O)c3cccc4c(=O)c5cccc(OC)c5sc34)cc1)CC2`, the melting point was 218 to 219 °C.
`CC(=O)SCC(Cc1ccccc1)C(=O)Nc1ccc(N(C)C)c(C(=O)O)c1` (configuration not stated) yielded a melting point of 168 to 169 °C.
The molecule `O=C(N(CCCc1c[nH]c2ccccc12)CCOc1cccc2[nH]c(=O)[nH]c12)C(F)(F)F` showed a melting point of 180 to 181 °C.
The figure for `CCn1c(CNc2ccncc2)nc2c(C#N)nc(-c3cccc(C(F)(F)F)c3)cc21` is 340 °C; for `CN(C)C(=O)N1CCC(c2nn(-c3ccc(C(F)(F)F)cc3)c3ccccc23)CC1` it is 117 to 119 °C.
The molecule `CN(c1ccc(F)c2cc(-c3nccs3)[nH]c12)S(=O)(=O)c1cccs1` returned a melting point of 197 to 198 °C.
In the case of `Cc1ccc(Cc2c[nH]c(NCCCC3CCCc4cccnc43)nc2=O)cn1` (configuration not stated), the melting point was in the range of 75 to 80 °C.
With `NS(=O)(=O)Oc1ccccc1`, the melting point is 81 to 85 °C.
For `COC(=O)CC[C@@H](NC(=O)[C@H](CO)NC(=O)OC(C)(C)C)C(=O)OC`, the melting point lay within 90 to 92 °C.
As for `CCCCNC(=O)NCCCn1c(CCCC)nc2c(N)nc3ccccc3c21`, the melting point stood at 186 °C.
Take `CCOCc1nc2c(N)nc3cc(-c4ccccc4)ccc3c2n1CC1CCN(C(=O)OC(C)(C)C)CC1`: the melting point lay in the range of 194 to 195 °C.
On to `CN1C(=O)Nc2ccc(Cl)cc2C12NC(=O)NC2=O` (configuration not stated), for which the melting point is greater than 280 °C.
In the case of `O=c1oc(-c2ccc(OCc3ccc(Cl)c(Cl)c3)cc2)cc(O)c1SCCc1ccccc1`, the melting point lay within 168 to 169 °C.
The molecule `O=C1C=C(c2ccc(O)cc2)S(=O)(=O)c2ccccc21` gave a melting point of 222 to 224 °C.
For `COC(=O)c1ccccc1CS(N)(=O)=O`, the melting point was in the range of 79 to 81 °C.
`O=S1CCN(c2nc3c(-c4nc(C5CC5)no4)ncn3c3ccccc23)CC1` had a melting point of 293 to 294 °C.
As for `C(CCCN1CCCNC1)CCCN1CCCNC1`, the figure is 52 to 53 °C.
`C=COCCN1C(=O)CN(C)C1=O` registered a melting point of 54 to 56 °C.
In the case of `Cc1cc(C)cc(C(=O)c2c(-c3ccc(OCCCN(C)C)cc3)oc3ccccc23)c1`, the melting point was 103 to 106 °C.
Regarding `CN1CC(CN2CC(=O)NC2=O)=CC2c3cccc4[nH]cc(c34)CC21` (configuration not stated), the melting point is 204 to 206 °C.
The figure for `CC(C)(C)c1cc(O)cc(C(C)(C)C)c1S(=O)c1nnc(-c2ccccn2)o1` (configuration not stated) is 172 to 173 °C; for `Cc1cc2ncc(NC(=O)C=Cc3ccc(O)c(O)c3)c(-c3ccccc3Cl)c2cc1C` it is 272 to 274 °C; for `COC(=O)c1ccc(-c2ccc(-c3ccccc3)c(-c3ccc4c(c3)C(C)(C)CCC4(C)C)c2)cc1O` it is 134 to 136 °C.
The molecule `Clc1cc(Cl)nc(-n2cnc3ccccc32)n1` showed a melting point of 173 to 175 °C.
